As usually defined, the IC50 is the concentration needed to halve the response being measured. Low readings indicate inhibition by little substance, high ones a need for much substance.

This passage reports IC50 results from patent publication EP1144365B1 (TANABE SEIYAKU CO., LTD., priority 1998, dated 2000).

A value given as a limit tells only on which side of the number the result lay.

Assay [1] deals with T1, α4β1 integrin (Homo sapiens, UniProt P05556+P13612).
T1 construct: a T-cell line, Jurkat, known to express the α4β1 integrin; host or cells: Jurkat T-cell line
The assay can be described thus: Jurkat-Endothelial Cell Adhesion Assay (Jurkat EC). Format: cell-based. Conditions: Jurkat cell adhesion to IL-1 stimulated endothelial cell monolayers. Here is the method: The following assay established the activity of the present compounds in inhibiting β1-mediated cell adhesion in a representative in vitro system. This assay measures the adhesive interactions of a T-cell line, Jurkat, known to express the α4β1 integrin, to endothelial monolayers in the presence of test compounds. The test compounds were added in increasing concentrations to T-cells and then the T-cell compound mixture was added to IL-1 stimulated endothelial cell monolayers. The plates were incubated, washed and the percentage of attached cells was quantitated.
Human umbilical vein endothelial cells were purchased from Clonetics (San Diego, CA.) at passage number 2. The cells were grown on 0.5% porcine skin gelatin pre-coated flasks (Sigma, St. Louis MO.) in EGM-UV media (Clonetics, San Diego, CA) supplemented with 10% fetal bovine serum. Cells are refed every 2-3 days reaching confluence by day 4 to 6. […] The endothelial cells are not used following passage 6.
The T-cell line Jurkat was obtained from American Type Tissue Culture Collection (Rockville, MD) and the cells were cultured in RPMI containing 10 % fetal calf serum. The cells were washed twice in Hank's Balanced Salt Solution (HBSS) and resuspended in Dulbecco's Minimal Eagle's Media (DMEM) containing 2.5 mg/ml Human Serum Albumin (HSA). Jurkat cells (1x10^6 cells/ml) were stained with 10 ng/ml BCECF-AM (Molecular Probes, Eugene, OR)) in HBSS without phenol red. The cells were loaded with BCECF for 60 minutes in the dark at 37°C, washed 2 times, and resuspended in DMEM-HSA solution.
Confluent endothelial monolayers, grown in 96-well tissue culture plates, were stimulated for 4 hr. at 37 °C with 0.1 ng/ml (∼50 U/ml) recombinant IL-1 (Amgen, Thousand Oaks, CA). Following this incubation, the monolayers were washed twice with HBSS and 0.1 ml of DMEM-HSA solution was added. Jurkat cells (5 x 10^5 cells) were combined with the appropriate concentration of the test compound and 0.1 ml of the Jurkat cell-compound mixture was added to the endothelial cell monolayers. Generally, 100, 20, 5 and 1.25 µM compound concentrations were tested. […] Following this incubation, the monolayers were washed twice with PBS containing 1 mM calcium chloride and 1 mM magnesium chloride' and the plates were read using a Millipore Cytofluor 2300 (Marlboro, MA.). Fluorescence in each well was measured as Arbitrary Fluorescence Units and percent adhesion in the absence of compound was adjusted to 100% and the % adhesion in the presence of compound was calculated. Monolayers were also fixed in 3% paraformaldehyde and evaluated microscopically to verify the adhesion. This procedure is a modification of a previously published method (Cardarelli et al., J. Biol. Chem. 269:18668-18673 (1994)).

In assay [2] the target is T2, α4β1 (Homo sapiens, UniProt P05556+P13612).
T2 construct: 100 µl of Jurkat cells (2.5 x 10^6 cells/ml) in DMEM plus BSA; host or cells: Jurkat T-cell line
The assay can be described thus: Jurkat-CS-1 assay. The assay is classed as cell-based. Conditions: Jurkat cell adhesion to immobilized CS-1 derived peptide. Here is the method:
The CS-1 derived peptide, CLHPGEILDVPST, and the scrambled control peptide, CLHGPIELVSDPT, were synthesized on a Beckman 990 synthesizer using t-Boc methodology. The peptides were immobilized onto microtiter plates using the heterobifunctional crosslinker 3-(2-pyridyldithio)propionic acid N-hydroxysuccinimide ester (SPDP) as reported by Pierschbacher et al., Proc. Natl. Acad. USA, 80:1224-1227 (1983). Microtiter plates were coated with 20 µg/ml HSA for 2 hr. at room temperature, washed once with PBS and derivatized with 10 µg/ml SPDP for 1 hr. After washing, 100 µl of a 100 µg/ml cysteine containing peptide solution which had been recently dissolved was added to the wells and allowed to crosslink to the plates overnight at 4 °C. Unbound peptide was removed from plates by washing with PBS. To block non-reacted sites, the plates are coated with 100 µl of a 2.5 mg/ml BSA solution in PBS for 1 hr. at 37 °C. 100 µl of Jurkat cells (2.5 x 10^6 cells/ml) in DMEM plus BSA (2.5 mg/ml) was mixed with an appropriate concentration of the compound to be tested and the mixture was added to peptide coated dishes and incubated for 1 hr. at 37 °C. Generally 100, 20, 5 and 1.25 µM concentrations of the compound were tested.
Following this incubation the plates were washed once with PBS and the attached cells were fixed with 3% paraformaldehyde in PBS and stained with 0.5% toluidine blue in 3.7% formaldehyde. The cells were stained overnight at room temperature and the optical density at 590 nm of toluidine blue stained cells was determined using a vertical pathway spectrophotometer to quantitate attachment (VMAX Kinetic Microplate Reader, Molecular Devices, Menlo Park, CA). This procedure is a modification of a previously published method (Cardarelli et al, J. Biol. Chem., 269:18668-18673 (1994) and Cardarelli et al, Proc. Natl. Acad. Sci. USA, 83:2647-2651 (1986)).

T2 sequence (P13612 34-1032): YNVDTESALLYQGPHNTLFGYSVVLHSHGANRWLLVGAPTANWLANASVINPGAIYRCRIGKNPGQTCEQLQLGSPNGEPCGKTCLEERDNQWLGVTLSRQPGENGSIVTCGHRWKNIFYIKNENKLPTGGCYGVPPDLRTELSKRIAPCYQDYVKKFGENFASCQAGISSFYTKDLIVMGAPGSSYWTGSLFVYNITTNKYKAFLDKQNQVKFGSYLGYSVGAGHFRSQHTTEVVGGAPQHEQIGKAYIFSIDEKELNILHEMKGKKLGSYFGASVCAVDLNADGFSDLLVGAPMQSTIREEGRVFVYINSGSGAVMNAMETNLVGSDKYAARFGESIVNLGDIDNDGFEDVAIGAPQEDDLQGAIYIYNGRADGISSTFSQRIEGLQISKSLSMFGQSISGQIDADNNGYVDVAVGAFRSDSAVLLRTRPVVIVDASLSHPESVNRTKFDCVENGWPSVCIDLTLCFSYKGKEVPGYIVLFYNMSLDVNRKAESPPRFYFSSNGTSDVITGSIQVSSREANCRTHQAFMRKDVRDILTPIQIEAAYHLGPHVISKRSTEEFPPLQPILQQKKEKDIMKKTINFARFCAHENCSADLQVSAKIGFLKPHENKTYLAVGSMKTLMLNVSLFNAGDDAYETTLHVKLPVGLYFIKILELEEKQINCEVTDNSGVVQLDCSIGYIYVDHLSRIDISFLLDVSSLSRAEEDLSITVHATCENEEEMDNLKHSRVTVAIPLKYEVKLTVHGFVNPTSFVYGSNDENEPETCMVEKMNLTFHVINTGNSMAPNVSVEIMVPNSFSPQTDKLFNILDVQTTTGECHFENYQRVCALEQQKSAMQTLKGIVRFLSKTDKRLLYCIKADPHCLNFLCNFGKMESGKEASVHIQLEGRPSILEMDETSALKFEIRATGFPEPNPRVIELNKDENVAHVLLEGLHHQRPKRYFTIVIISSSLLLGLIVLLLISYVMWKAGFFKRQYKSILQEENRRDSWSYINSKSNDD
T2 sequence (P05556 21-798): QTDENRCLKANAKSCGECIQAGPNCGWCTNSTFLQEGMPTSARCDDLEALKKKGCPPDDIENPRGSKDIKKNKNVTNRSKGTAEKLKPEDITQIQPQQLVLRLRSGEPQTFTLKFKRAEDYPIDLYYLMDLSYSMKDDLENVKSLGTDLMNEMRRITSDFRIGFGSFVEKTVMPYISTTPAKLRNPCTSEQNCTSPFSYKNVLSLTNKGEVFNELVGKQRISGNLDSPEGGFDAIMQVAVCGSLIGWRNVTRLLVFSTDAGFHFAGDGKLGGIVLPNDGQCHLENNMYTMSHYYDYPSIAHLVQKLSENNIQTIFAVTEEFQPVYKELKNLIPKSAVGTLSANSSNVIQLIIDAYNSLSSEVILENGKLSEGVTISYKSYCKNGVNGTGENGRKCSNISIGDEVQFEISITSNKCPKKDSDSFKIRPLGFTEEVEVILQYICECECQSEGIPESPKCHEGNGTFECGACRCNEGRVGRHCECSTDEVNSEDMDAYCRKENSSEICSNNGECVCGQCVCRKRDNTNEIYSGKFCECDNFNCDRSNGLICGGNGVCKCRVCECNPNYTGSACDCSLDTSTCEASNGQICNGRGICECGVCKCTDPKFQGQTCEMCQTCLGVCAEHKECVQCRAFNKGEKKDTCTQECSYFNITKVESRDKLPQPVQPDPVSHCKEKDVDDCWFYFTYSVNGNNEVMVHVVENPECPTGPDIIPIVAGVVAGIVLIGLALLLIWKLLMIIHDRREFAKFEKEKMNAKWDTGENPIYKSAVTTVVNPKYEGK
T1 sequence (P13612 34-1032): as the sequence (P13612 34-1032) above
T1 sequence (P05556 21-798): as the sequence (P05556 21-798) above

Consider `O=C(NC1(C(=O)N[C@@H](Cc2ccc(NC(=O)c3c(Cl)cccc3Cl)cc2)C(=O)O)CC2CCC1C2)c1cc(O)c2ccccc2n1` (stereo partly drawn) [Example 73], for which the IC50 lay in the range of 800 to 5000 nM in assay [1] and 500 to 1000 nM in assay [2].

Take `O=C(NC1(C(=O)N[C@@H](Cc2ccc(NC(=O)c3c(Cl)cccc3Cl)cc2)C(=O)O)CC2CCC1C2)c1cc(C(=O)O)[nH]n1` (stereo partly drawn) [Example 74]: the half-inhibitory concentration (IC50) in assay [1] lay within 800 to 5000 nM; in assay [2] it was 80 to 500 nM.

For `O=C(Nc1ccc(C[C@H](NC(=O)C2(NC(=O)C3NC(C(=O)O)CS3)CC3CCC2C3)C(=O)O)cc1)c1c(Cl)cccc1Cl` (stereo partly drawn) [Example 75], the IC50 in assay [1] is at most 800 nM; in assay [2], 80 to 500 nM.

As to `O=C(NC1(C(=O)N[C@@H](Cc2ccc(NC(=O)c3c(Cl)cccc3Cl)cc2)C(=O)O)CC2CCC1C2)c1ccc([N+](=O)[O-])o1` (stereo partly drawn) [Example 76], the IC50 in assay [1] fell in the range of 800 to 5000 nM; in assay [2] it was 80 to 500 nM.

Regarding `O=C(Nc1ccc(C[C@H](NC(=O)C2(NC(=O)C3CCCO3)CC3CCC2C3)C(=O)O)cc1)c1c(Cl)cccc1Cl` (stereo partly drawn) [Example 77], the results for the IC50 in assay [1] and in assay [2] were at most 800 nM and 80 to 500 nM, respectively.

In the case of `O=C(Nc1ccc(C[C@H](NC(=O)C2(NC(=O)C3CCOC3)CC3CCC2C3)C(=O)O)cc1)c1c(Cl)cccc1Cl` (stereo partly drawn) [Example 78], the IC50 in assay [1] was at most 800 nM; in assay [2] it was 80 to 500 nM.

Take `O=C(NC1CCCCC1C(=O)NC(Cc1ccc(NC(=O)c2c(Cl)cccc2Cl)cc1)C(=O)O)c1cccnc1` (stereo not drawn) [Example 79]: the IC50 in assay [1] lay within 800 to 5000 nM; in assay [2] it was 80 to 500 nM.

As for `O=C(O)c1ccc(C(=O)NC2CCCCC2C(=O)NC(Cc2ccc(NC(=O)c3c(Cl)cccc3Cl)cc2)C(=O)O)nc1` (stereo not drawn) [Example 81], the results for the IC50 in assay [1] and in assay [2] were 800 to 5000 nM and 80 to 500 nM, respectively.

As for `O=C(NC1CCCCC1C(=O)NC(Cc1ccc(NC(=O)c2c(Cl)cccc2Cl)cc1)C(=O)O)c1cc(O)c2ccccc2n1` (stereo not drawn) [Example 82], the IC50 in assay [1] is at most 800 nM; in assay [2], 80 to 500 nM.

Turning to `O=C(NC1CCCCC1C(=O)NC(Cc1ccc(NC(=O)c2c(Cl)cccc2Cl)cc1)C(=O)O)c1cc(C(=O)O)[nH]n1` (stereo not drawn) [Example 83], the IC50 in assay [1] is at most 800 nM; in assay [2] it was at most 80 nM.

With `O=C(Nc1ccc(CC(NC(=O)C2CCCCC2NC(=O)C2NC(C(=O)O)CS2)C(=O)O)cc1)c1c(Cl)cccc1Cl` (stereo not drawn) [Example 84], the IC50 in assay [1] is at most 800 nM; in assay [2] it was 80 to 500 nM.

Consider `O=C(NC1CCCCC1C(=O)NC(Cc1ccc(NC(=O)c2c(Cl)cccc2Cl)cc1)C(=O)O)c1ccc([N+](=O)[O-])o1` (stereo not drawn) [Example 85], for which the IC50 in assay [1] is at most 800 nM; in assay [2] it was at most 80 nM.

Consider `O=C(Nc1ccc(CC(NC(=O)C2CCCCC2NC(=O)C2CCCO2)C(=O)O)cc1)c1c(Cl)cccc1Cl` (stereo not drawn) [Example 86], for which the IC50 in assay [1] was at most 800 nM; in assay [2], at most 80 nM.

With `O=C(Nc1ccc(CC(NC(=O)C2CCCCC2NC(=O)C2CCOC2)C(=O)O)cc1)c1c(Cl)cccc1Cl` (stereo not drawn) [Example 87], the results for the 50% inhibitory concentration (IC50) in assay [1] and in assay [2] were at most 800 nM and 80 to 500 nM, respectively.

In the case of `CC(=O)[C@H]1C[C@@H](CC(=O)N[C@@H](Cc2ccc(NC(=O)c3c(Cl)cccc3Cl)cc2)C(=O)O)C1(C)C` [Example 88, (1S-cis)-N-[(3-Acetyl-2,2-dimethylcyclobutyl)acetyl]-4-[(2,6-dichlorobenzoyl)amino]-L-phenylalanine], the IC50 in assay [1] was in the range of 5000 to 10000 nM; in assay [2], 500 to 1000 nM.

As to `CC(O)[C@H]1C[C@@H](CC(=O)N[C@@H](Cc2ccc(NC(=O)c3c(Cl)cccc3Cl)cc2)C(=O)O)C1(C)C` (stereo partly drawn) [Example 89, [1S-(1α,3α)]-4-[(2,6-Dichlorobenzoyl)amino]-N-[[3-(1-hydroxyethyl)-2,2-dimethylcyclobutyl]acetyl]-L-phenylalanine], the IC50 in assay [1] was 5000 to 10000 nM; in assay [2] it was 500 to 1000 nM.

Consider `CC(=O)[C@@H]1C[C@H](CC(=O)N[C@@H](Cc2ccc(NC(=O)c3c(Cl)cccc3Cl)cc2)C(=O)O)C1(C)C` [Example 91, (1R-cis)-N-[(3-Acetyl-2,2-dimethylcyclobutyl)acetyl]-4-[(2,6-dichlorobenzoyl)amino]-L-phenylalanine], for which the values for the IC50 in assay [1] and in assay [2] were 800 to 5000 nM and 500 to 1000 nM, respectively.

For the molecule `CC1(C)[C@@H](CC(=O)N[C@@H](Cc2ccc(NC(=O)c3c(Cl)cccc3Cl)cc2)C(=O)O)C[C@H]1C(=O)O` [Example 93, (1R-cis)-N-[(3-Carboxy-2,2-dimethylcyclobutyl)acetyl]-4-[(2,6-dichlorobenzoyl)amino]-L-phenylalanine], the IC50 was in the range of 800 to 5000 nM in assay [1] and 80 to 500 nM in assay [2].

With `CC1(C)[C@@H](C(=O)O)C[C@@H]1C(=O)N[C@@H](Cc1ccc(OCc2c(Cl)cccc2Cl)cc1)C(=O)O` [Example 94, (1S-trans)-N-[(3-Carboxy-2,2-dimethylcyclobutyl)carbonyl]-4-[(2,6-dichlorophenyl)methoxy]-L-phenylalanine], the results for the IC50 in assay [1] and in assay [2] were at most 800 nM and 80 to 500 nM, respectively.

Regarding `CC(=O)[C@H]1C[C@H](C(=O)N[C@@H](Cc2ccc(NC(=O)c3c(Cl)cccc3Cl)cc2)C(=O)O)C1(C)C` [Example 96, (1S-trans)-N-[(3-Acetyl-2,2-dimethylcyclobutyl)carbonyl]-4-[(2,6-dichlorobenzoyl)amino]-L-phenylalanine], the values for the IC50 in assay [1] and in assay [2] were at most 800 nM and at most 80 nM, respectively.

As to `CC(=O)[C@@H]1C[C@H](C(=O)N[C@@H](Cc2ccc(NC(=O)c3c(Cl)cccc3Cl)cc2)C(=O)O)C1(C)C` [Example 97, (1S-cis)-N-[(3-Acetyl-2,2-dimethylcyclobutyl)carbonyl]-4-[(2,6-dichlorobenzoyl)amino)-L-phenylalanine], the IC50 in assay [1] is at most 800 nM; in assay [2], at most 80 nM.

On to `CC1(C)[C@@H](C(=O)O)C[C@@H]1C(=O)N[C@@H](Cc1ccc(NC(=O)c2c(Cl)cccc2Cl)cc1)C(=O)O` [Example 98, (1S-trans)-N-[(3-Carboxy-2,2-dimethylcyclobutyl)carbonyl]-4-[(2,6-dichlorobenzoyl)amino]-L-phenylalanine], for which the IC50 in assay [1] is at most 800 nM; in assay [2], 80 to 500 nM.

`CC1(C)[C@@H](C(=O)N[C@@H](Cc2ccc(NC(=O)c3c(Cl)cccc3Cl)cc2)C(=O)O)C[C@H]1C(=O)O` [Example 99, (1S-cis)-N-[(3-Carboxy-2,2-dimethylcyclobutyl)carbonyl]-4-[(2,6-dichlorobenzoyl)amino]-L-phenylalanine]: the values for the IC50 in assay [1] and in assay [2] were 800 to 5000 nM and 80 to 500 nM, respectively.

Consider `CC(=O)[C@@H]1C[C@@H](C(=O)N[C@@H](Cc2ccc(NC(=O)c3c(Cl)cccc3Cl)cc2)C(=O)O)C1(C)C` [Example 100, (1R-trans)-N-[(3-Acetyl-2,2-dimethylcyclobutyl]carbonyl]-4-[(2,6-dichlorobenzoyl)amino]-L-phenylalanine], for which the IC50 is 800 to 5000 nM in assay [1] and 80 to 500 nM in assay [2].
